From paper PMC9329353, “Structures of Atm1 provide insight into [2Fe-2S] cluster export from mitochondria” (Nature Communications, 2022)

Legend:
[1] = molecular target: T1, CtAtm1 (Thermochaetoides thermophila, UniProt G0SBE6, E603Q); assay: cryo-EM structure, […] Å; settings: nanodiscs, 1 mM ATP, 1 mM GSSG, 1 mM MgCl2; occluded state; nucleotide-binding domains
T1 construct: gene CTHT_0050000; full-length, C-terminal TEV site and His8 (pET-52b-CtATM1-TEV-His8), E. coli C43(DE3); DDM or MSP1D1 nanodiscs; homodimer; first 94 and last 26 residues not modelled (580 modelled)

[2] = molecular target: T2, CtAtm1 (Thermochaetoides thermophila, UniProt G0SBE6); assay: ATPase assay (phosphate release, absorbance at […] nm); format: biochemical; settings: 1 mM ATP, 5 mM MgCl2, 37 °C, detergent or nanodisc; no exogenous cargo
T2 construct: gene CTHT_0050000; full-length, C-terminal TEV site and His8 (pET-52b-CtATM1-TEV-His8), E. coli C43(DE3); DDM or MSP1D1 nanodiscs; homodimer; first 94 and last 26 residues not modelled (580 modelled)

[3] = molecular target: CtAtm1 (ABC transporter of mitochondria 1 from Chaetomium thermophilum), wild type (Chaetomium thermophilum); assay: cryo-EM structure; wild-type CtAtm1 in lipid nanodiscs (MSP1D1), incubated with 1 mM ATP and 2 mM MgCl2 for 30 min on ice, no cargo added; inward-facing open state, 3.0 Å

T1 sequence (G0SBE6 entry or part of it E603Q): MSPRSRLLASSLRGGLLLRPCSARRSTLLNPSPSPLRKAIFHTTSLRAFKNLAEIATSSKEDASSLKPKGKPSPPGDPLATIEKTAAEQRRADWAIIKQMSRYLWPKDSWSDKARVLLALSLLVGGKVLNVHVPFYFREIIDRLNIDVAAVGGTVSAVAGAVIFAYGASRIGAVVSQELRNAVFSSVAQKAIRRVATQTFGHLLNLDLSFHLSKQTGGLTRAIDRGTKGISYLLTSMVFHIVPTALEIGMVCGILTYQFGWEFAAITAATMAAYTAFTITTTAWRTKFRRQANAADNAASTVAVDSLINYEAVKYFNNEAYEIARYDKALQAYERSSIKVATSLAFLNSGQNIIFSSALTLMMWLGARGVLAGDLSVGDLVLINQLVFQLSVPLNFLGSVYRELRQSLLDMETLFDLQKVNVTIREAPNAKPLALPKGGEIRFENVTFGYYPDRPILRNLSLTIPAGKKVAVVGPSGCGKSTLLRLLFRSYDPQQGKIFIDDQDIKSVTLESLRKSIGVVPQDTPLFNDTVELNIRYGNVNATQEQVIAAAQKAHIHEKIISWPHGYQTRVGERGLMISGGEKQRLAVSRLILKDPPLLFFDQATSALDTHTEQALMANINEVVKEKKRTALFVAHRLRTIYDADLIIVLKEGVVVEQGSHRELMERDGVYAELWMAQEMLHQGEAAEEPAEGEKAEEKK
T2 sequence (G0SBE6 entry or part of it): as the sequence (G0SBE6 entry or part of it E603Q) above, with Q603E counted along it

| Compound | cryo-EM structure, 2.8 Å [1] | ATPase assay (phosphate release, absorbance at 620 nm) [2] | stoichiometry N [3] |
| --- | --- | --- | --- |
| Nc1ncnc2c1ncn2[C@@H]1O[C@H](COP(=O)(O)OP(=O)(O)OP(=O)(O)O)[C@@H](O)[C@H]1O [ATP] | two ATP molecules are readily identified in the cryo-EM density | exhibited clear and comparably robust ATP hydrolysis activity in detergent solution |  |
| CtAtm1 (ABC transporter of mitochondria 1 from Chaetomium thermophilum), wild type (natural protein) |  |  | 2 |
